# Test results: patent US20070010669A1, “Novel class of cytodifferentiating agents and histone deacetylase inhibitors, and methods of use thereof” (priority 1999, published 2007)
# Target: affinity purified human epitope-tagged (Flag) HDAC1 (Homo sapiens, UniProt Q13547)
# Assay: Histone Deacetylase (HDAC) enzymatic activity, [3H]acetyl-labeled histone substrate
# Format: biochemical
# Set-up: Flag
# Settings: Table 2; unit nM; read-out: HDAC inh ID50
# Description: (§1) Substrate ([^3H]acetyl-labeled murine erythroleukemia cell-derived histone) was added and the samples were incubated for 20 min at 37° C. in a total volume of 30 μl. The reaction were then stopped and released acetate was extracted and the amount of radioactivity released determined by scintillation counting.
# as §1, with “Substrate ([^3H]acetyl-labelled” for “Substrate ([^3H]acetyl-labeled”, “The reactions” for “The reaction”, “and relaesed” for “and released”
# as §1, with “([^3H]acetyl-labelled” for “([^3H]acetyl-labeled”, “reactions” for “reaction”
# The effect was assayed by incubating the enzyme preparation in the absence of substrate on ice for 20 minutes with the indicated amounts of compound. Substrate([^3H]acetyl-labeled murine erythroleukemia cell-derived histones) was added and the samples were incubated for 20 minutes at 37° C. in a total volume of 30 μl. The reactions were then stopped and released acetate was extracted and the amount of radioactivity released determined by scintillation counting.
# affinity purified human epitope-tagged (Flag) HDAC1, sequence (Q13547 whole entry): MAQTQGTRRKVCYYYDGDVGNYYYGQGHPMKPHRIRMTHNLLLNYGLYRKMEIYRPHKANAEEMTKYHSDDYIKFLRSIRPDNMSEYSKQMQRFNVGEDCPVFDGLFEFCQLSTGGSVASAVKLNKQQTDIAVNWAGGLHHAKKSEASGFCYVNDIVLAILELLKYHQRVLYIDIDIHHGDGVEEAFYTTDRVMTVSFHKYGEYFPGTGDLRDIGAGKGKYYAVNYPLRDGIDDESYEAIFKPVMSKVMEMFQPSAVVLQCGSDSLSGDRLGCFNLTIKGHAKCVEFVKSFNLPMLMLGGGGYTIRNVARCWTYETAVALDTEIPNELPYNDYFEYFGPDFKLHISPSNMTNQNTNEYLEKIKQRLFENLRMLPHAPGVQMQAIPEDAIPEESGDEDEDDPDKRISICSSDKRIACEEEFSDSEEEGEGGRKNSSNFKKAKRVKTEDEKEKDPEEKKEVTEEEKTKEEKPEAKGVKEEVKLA
row,IC50,Compound
1,150 nM,O=C(/C=C/c1cccc(C(C(=O)Nc2cccc3cccnc23)C(=O)Nc2cccc3cccnc23)c1)NO [Compound 690]
2,100 nM,O=C(CCCCCC(C(=O)Nc1cccc2ncccc12)C(=O)Nc1cccc2ncccc12)NO [Compound 691]

# Same assay, conditions: Table 2; unit μM; read-out: HDAC inh ID50
row,Compound,IC50
1,O=C(O)CCCCCC(NC(=O)OCc1ccccc1)C(=O)Nc1cccc2cccnc12 (stereo not shown) [Compound 659],10000 nM
2,CS(=O)(=O)NCCCCCC(=O)Nc1ccccc1 [Compound 662],> 100000 nM

# The next lines start with the values.
row,IC50,Compound
1,10000 nM,O=C(Nc1ccccc1)C(CCCCCC(=O)C(F)(F)F)C(=O)Nc1ccccc1 [Compound 669]
2,50000 nM,OC(c1ncc[nH]1)(c1ncc[nH]1)c1nc(CCCCCc2cnc(C(O)(c3ncc[nH]3)c3ncc[nH]3)[nH]2)c[nH]1 [Compound 674]
3,> 100000 nM,CC(=O)SCCCCCC(=O)Nc1ccccc1 [Compound 675]
4,> 100000 nM,NS(=O)(=O)CCCCCC(=O)Nc1ccccc1 [Compound 678]
5,> 100000 nM,O=C(CCCCCn1ccnc1)Nc1ccccc1 [Compound 679]
6,> 100000 nM,CC(=O)SCCCCCCCC(=O)Nc1ccccc1 [Compound 680]
7,200000 nM,O=C(/C=C/c1cccc(C(=O)Nc2ccccc2)c1)NO [Compound 687]
8,> 100000 nM,O=C(CCCCCCC(=O)Nc1cc[nH]n1)Nc1ccccc1 [Compound 688]
9,> 100000 nM,O=C(CCCCCCC(=O)Nc1nccs1)Nc1ccccc1 [Compound 693]

# System: Murine erythroleukemia (MEL) cells
# Assay: MEL cell differentiation assay (benzidine assay; cell growth by Coulter Counter)
# Format: cell-based
# Settings: FIGS. 1, 3, 4, 6; 5-day culture
# Description: (§2) The MEL cell differentiation assay was used to assess the ability of Compound 1 to induce terminal differentiation. MEL cells (logarithmically dividing) were cultured with the indicated concentrations of Compound 1. Following a 5-day culture period, cell growth was determined using a Coulter Counter and differentiation was determined microscopically using the benzidine assay to determine hemoglobin protein accumulation on a per cell basis.
# as §2, with “2” for “1”, “2.” for “1.”, “period” for “period, cell growth was determined using a Coulter Counter and”
# as §2, with “3” for “1”, “3.” for “1.”, “period” for “period, cell growth was determined using a Coulter Counter and”, “microsdopically” for “microscopically”
# as §2, with “4” for “1”, “4.” for “1.”, “period” for “period, cell growth was determined using a Coulter Counter and”
# All the compounds which were prepared were tested. […] Table 2 is compiled from experiments similar to the experiments described in Examples 7-10 above.
row,Compound,concentration able to induce MEL cell differentiation
1,"O=C(CCCCC[C@H](NC(=O)c1cccnc1)C(=O)Nc1ccccc1)NO [Compound 2, N-Nicotinoyl-(L)-α-aminosuberoylanilide-ω-hydroxamic acid]",800 nM

# Same assay, conditions: Table 1; benzidine-positive cells at Opt. concentration
row,Compound,MEL Differentiation % B+
1,"O=C(CCCCC[C@H](NC(=O)c1cccnc1)C(=O)Nc1ccccc1)NO [Compound 2, N-Nicotinoyl-(L)-α-aminosuberoylanilide-ω-hydroxamic acid]",27%

# Same assay, conditions: Table 1; optimal concentration, 5-day culture
row,Compound,MEL Differentiation Opt.
1,"O=C(CCCCC[C@H](NC(=O)c1cccnc1)C(=O)Nc1ccccc1)NO [Compound 2, N-Nicotinoyl-(L)-α-aminosuberoylanilide-ω-hydroxamic acid]",800 nM

# Same assay, conditions: Table 2
row,Compound,MEL Diff % B+
1,"O=C(/C=C/c1cccc(C(C(=O)Nc2ccccc2)C(=O)Nc2ccccc2)c1)NO [Compound 77, 3-(malonyldi(phenylamide)) cinnamyl hydroxamic acid]",9%
2,O=C(O)CCCCCC(NC(=O)OCc1ccccc1)C(=O)Nc1cccc2cccnc12 (stereo not shown) [Compound 659],0%
3,CS(=O)(=O)NCCCCCC(=O)Nc1ccccc1 [Compound 662],0%
4,O=C(Nc1ccccc1)C(CCCCCC(=O)C(F)(F)F)C(=O)Nc1ccccc1 [Compound 669],11%
5,COP(=O)(NCCCCCC(=O)Nc1ccccc1)OC [Compound 673],0%
6,OC(c1ncc[nH]1)(c1ncc[nH]1)c1nc(CCCCCc2cnc(C(O)(c3ncc[nH]3)c3ncc[nH]3)[nH]2)c[nH]1 [Compound 674],0%
7,CC(=O)SCCCCCC(=O)Nc1ccccc1 [Compound 675],0%
8,O=C(CCCCCBr)Nc1ccccc1 [Compound 676],0%
9,NS(=O)(=O)CCCCCC(=O)Nc1ccccc1 [Compound 678],0%
10,O=C(CCCCCn1ccnc1)Nc1ccccc1 [Compound 679],0%
11,O=C(CCCCCCn1ccnc1)Nc1ccccc1 [Compound 684],0%
12,NS(=O)(=O)CCCCCCC(=O)Nc1ccccc1 [Compound 686],0%
13,O=C(/C=C/c1cccc(C(=O)Nc2ccccc2)c1)NO [Compound 687],0%
14,O=C(CCCCCCC(=O)Nc1cc[nH]n1)Nc1ccccc1 [Compound 688],0%
15,O=C(/C=C/c1cccc(C(C(=O)Nc2cccc3cccnc23)C(=O)Nc2cccc3cccnc23)c1)NO [Compound 690],38%
16,O=C(CCCCCC(C(=O)Nc1cccc2ncccc12)C(=O)Nc1cccc2ncccc12)NO [Compound 691],0%
17,O=C(CCCCCC(C(=O)Nc1ccc2ncccc2c1)C(=O)Nc1ccc2ncccc2c1)NO [Compound 692],27%
18,O=C(CCCCCCC(=O)Nc1nccs1)Nc1ccccc1 [Compound 693],0%

# Same assay, conditions: Table 2; cell growth
row,Compound,MEL Diff Cells/ml × 10^−5
1,"O=C(/C=C/c1cccc(C(C(=O)Nc2ccccc2)C(=O)Nc2ccccc2)c1)NO [Compound 77, 3-(malonyldi(phenylamide)) cinnamyl hydroxamic acid]",9.0 Cells/ml × 10^−5
2,O=C(Nc1ccccc1)C(CCCCCC(=O)C(F)(F)F)C(=O)Nc1ccccc1 [Compound 669],16.0 Cells/ml × 10^−5
3,O=C(CCCCCCC(=O)C(F)(F)F)Nc1ccccc1 [Compound 670],13.0 Cells/ml × 10^−5
4,COP(=O)(NCCCCCC(=O)Nc1ccccc1)OC [Compound 673],No inh
5,OC(c1ncc[nH]1)(c1ncc[nH]1)c1nc(CCCCCc2cnc(C(O)(c3ncc[nH]3)c3ncc[nH]3)[nH]2)c[nH]1 [Compound 674],Dead at 25 μM
6,CC(=O)SCCCCCC(=O)Nc1ccccc1 [Compound 675],No inh
7,O=C(CCCCCBr)Nc1ccccc1 [Compound 676],No inh
8,NS(=O)(=O)CCCCCC(=O)Nc1ccccc1 [Compound 678],No inh
9,O=C(CCCCCn1ccnc1)Nc1ccccc1 [Compound 679],No inh
10,O=C(CCCCCCn1ccnc1)Nc1ccccc1 [Compound 684],No inh
11,NS(=O)(=O)CCCCCCC(=O)Nc1ccccc1 [Compound 686],No inh
12,O=C(/C=C/c1cccc(C(=O)Nc2ccccc2)c1)NO [Compound 687],No inh
13,O=C(CCCCCCC(=O)Nc1cc[nH]n1)Nc1ccccc1 [Compound 688],No inh
14,O=C(CCCCCC(C(=O)Nc1cccc2ncccc12)C(=O)Nc1cccc2ncccc12)NO [Compound 691],No inh
15,O=C(CCCCCCC(=O)Nc1nccs1)Nc1ccccc1 [Compound 693],No inh
